Patent publication US20160176867A1, “MODIFIED BET-PROTEIN-INHIBITING DIHYDROQUINOXALINONES AND DIHYDROPYRIDOPYRAZINONES” (BAYER PHARMA AKTIENGESELLSCHAFT, priority 2013, published 2016)

Columns and labels:
MOLM-13 cells = assay: Cell proliferation assay (alamarBlue), MOLM-13; type: cell-based; conditions: Homo sapiens; MOLM-13 (acute myeloid leukaemia), 96 hours
Procedure, shortened: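 Cells in RPMI1640 with 10% FCS, read by alamarBlue fluorescence (ex 530, em 590 nm) after overnight plating and again after 96 h compound exposure at 37° C (1E-5 to 1E-8 M). Baseline-subtracted signal compared with buffer-treated cells to derive IC50.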

B16F10 cells = assay: Cell proliferation assay (alamarBlue), B16F10; type: cell-based; conditions: Mus musculus, B16-F10; B16F10 (melanoma, BRAF wild-type), 96 hours
Procedure, shortened: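 B16F10 cells in DMEM with 10% FCS were exposed to seven concentrations from 1E-5 to 1E-8 M for 96 hours at 37 °C. Viability was read with alamarBlue (ex 530/em 590 nm), and day-0 signal was subtracted. IC50 was derived relative to buffer-treated cells.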

[1] = biological target: T1, BRD4 bromo domain 2 [BRD4(2)] (Homo sapiens, UniProt O60885); assay: BRD4/acetylated peptide H4 binding assay (TR-FRET), BRD4 bromo domain 2; conditions: inhibition of BRD4(2)/Ac-H4 peptide interaction
T1 construct: N-terminally His6-tagged BRD4(2) (amino acids 357-445); made in house; host or cells: E. coli
Procedure, shortened: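 Binding of His6-BRD4(2) (aa 357-445, 100 nM final) to biotinylated tetra-acetylated H4 peptide read by TR-FRET (665/620 nm). Compound preincubated 10 min at 22 °C, then 1 h at 22 °C plus ≥3 h at 4 °C. Eleven concentrations (0.1 nM–20 μM) in duplicate; IC50 by 4-parameter fit.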

MOLP-8 cells = assay: Cell proliferation assay (alamarBlue), MOLP-8; type: cell-based; conditions: Homo sapiens; MOLP-8 (multiple myeloma), 120 hours
Procedure, shortened: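 MOLP-8 cells plated at 4000 cells/well in RPMI1640 with 20% FCS, read after overnight culture, then treated with dilutions from 1E-5 to 1E-8 M for 120 hours at 37° C. Viability by alamarBlue fluorescence (ex 530/em 590 nm); initial reads subtracted, compared with buffer-treated cells, and IC50 calculated for 50% proliferation inhibition.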

CHL-1 cells = assay: Cell proliferation assay (alamarBlue), CHL-1; type: cell-based; conditions: Homo sapiens; CHL-1 (melanoma, BRAF wild-type), 96 hours
Method: In accordance with the invention, the ability of the substances to inhibit cell proliferation was determined. Cell viability was determined by means of the alamarBlue® reagent (Invitrogen) in a Victor X3 Multilabel Reader (Perkin Elmer). The excitation wavelength was 530 nm and the emission wavelength […].
The CHL-1 cells (ATCC, CRL-9446) were sown at a concentration of 1000 cells/well in 100 μl of growth medium (DMEM with glutamine, 10% FCS) on 96-well microtitre plates.
After overnight incubation at 37° C., the fluorescence values were determined (CI values). Then the plates were treated with various substance dilutions (1E-5 M, 3E-6 M, 1E-6 M, 3E-7 M, 1E-7 M, 3E-8 M, 1E-8 M) and incubated at 37° C. over 96 hours (MOLM-13, B16F10, CHL-1 cells) or 120 hours (MOLP-8 cells). Subsequently, the fluorescence values were determined (CO values). For the data analysis, the CI values were subtracted from the CO values and the results were compared between cells which had been treated with various dilutions of the substance or only with buffer solution. The IC50 values (substance concentration needed for 50% inhibition of cell proliferation) were calculated therefrom.

IC50 (MOLM-13 cells) [nM]	IC50 (B16F10 cells) [nM]	IC50 [1] [nM]	Compound	IC50 (MOLP-8 cells) [nM]	IC50 (CHL-1 cells) [nM]
16	157	76	C[C@@H]1C(=O)N(C)c2ccc(Nc3cccc(S(=O)(=O)NC4CCN(C)CC4)c3)nc2N1Cc1ccccc1 [Example 33, 3-{[(3R)-4-benzyl-1,3-dimethyl-2-oxo-1,2,3,4-tetrahydropyrido[2,3-b]pyrazin-6-yl]amino}-N-(1-methylpiperidin-4-yl)benzenesulphonamide]	12	13
536	2160	97	C[C@@H]1C(=O)N(C)c2ccc(Nc3cccc(S(=O)(=O)N(C)C)c3)cc2N1C1CCNCC1 [Example 129, 3-{[(3R)-1,3-dimethyl-2-oxo-4-(piperidin-4-yl)-1,2,3,4-tetrahydroquinoxalin-6-yl]amino}-N,N-dimethylbenzenesulphon-amide]	567	945
565	1300	186	COCCN1c2nc(Nc3cccc(S(=O)(=O)N4CCN(C)CC4)c3)ccc2N(C)C(=O)C1C (racemic) [Example 53, 4-(2-methoxyethyl)-1,3-dimethyl-6-({3-[(4-methylpiperazin-1-yl)sulphonyl]phenyl}-amino)-3,4-dihydropyrido-[2,3-b]pyrazin-2(1H)-one]	365	179
64	230	64	C[C@@H]1C(=O)N(C)c2ccc(Nc3cccc(S(=O)(=O)N4CC(F)(F)C4)c3)nc2N1C1CCN(C)CC1 [Example 29, (3R)-6-({3-[(3,3-Difluoroazetidin-1-yl)sulphonyl]phenyl}amino)-1,3-dimethyl-4-(1-methylpiperidin-4-yl)-3,4-dihydropyrido[2,3-b]pyrazin-2(1H)-one]	41	36
223	316	115	COCCN1c2nc(Nc3cccc(S(=O)(=O)N4CCOCC4)c3)ccc2N(C)C(=O)[C@H]1C (stereo in doubt) [Example 111, (3R)-4-(2-methoxyethyl)-1,3-dimethyl-6-{[3-(morpholin-4-ylsulphonyl)phenyl]amino}-3,4-dihydropyrido[2,3-b]pyrazin-2(1H)-one]	106	85
197	381	79	C[C@@H]1C(=O)N(C)c2ccc(Nc3cccc(C(=O)N4CCN(C)CC4)c3)nc2N1Cc1ccccc1 [Example 75]	133	125
32	25	31	C[C@@H]1C(=O)N(C)c2ccc(Nc3cccc(S(=O)(=O)NC4CC4)c3)nc2N1C1CCOCC1 [Example 26, N-Cyclopropyl-3-{[(3R)-1,3-dimethyl-2-oxo-4-(tetrahydro-2H-pyran-4-yl)-1,2,3,4-tetrahydropyrido[2,3-b]pyrazin-6-yl]amino}benzenesulphonamide]	24	31
213	727	121	C[C@@H]1C(=O)N(C)c2ccc(Nc3cccc(S(=O)(=O)N4CCN(C)CC4)c3)nc2N1C1CCN(C)CC1 [Example 50, (3R)-1,3-dimethyl-6-({3-[(4-methylpiperazin-1-yl)sulphonyl]phenyl}-amino)-4-(1-methyl-piperidin-4-yl)-3,4-dihydropyrido[2,3-b]pyrazin-2(1H)-one]	140	118
51	188	59	C[C@@H]1C(=O)N(C)c2ccc(Nc3cccc(S(=O)(=O)N4CCOCC4)c3)nc2N1C1CCN(C)CC1 [Example 47, (3R)-1,3-dimethyl-4-(1-methylpiperidin-4-yl)-6-{[3-(morpholin-4-ylsulphonyl)phenyl]-amino}-3-4-dihydropyrido-[2,3-b]pyrazin-2(1H)-one]	25	20
239	488	77	C[C@@H]1C(=O)N(C)c2ccc(Nc3ccc4c(c3)S(=O)(=O)NC4)nc2N1C1CCOCC1 [Example 56, (3R)-6-[(1,1-dioxido-2,3-dihydro-1,2-benzothiazol-6-yl)amino]-1,3-dimethyl-4-(tetrahydro-2H-pyran-4-yl)-3,4-dihydropyrido[2,3-b]pyrazin-2(1H)-one]	214	181
516	1140	77	C[C@@H]1C(=O)N(C)c2ccc(Nc3cccc(S(=O)(=O)NCCN(C)C)c3)nc2N1C1CCN(C(=O)OC(C)(C)C)CC1 [Example 59, tert-butyl 4-[(3R)-6-[(3-{[2-(dimethylamino)ethyl]-sulphamoyl}phenyl)amino]-1,3-dimethyl-2-oxo-2,3-dihydropyrido[2,3-b]pyrazin-4(1H)-yl]piperidine-1-carboxylate]	297	204
193	531	177	C[C@@H]1C(=O)N(C)c2ccc(Nc3cccc(S(=O)(=O)NC4CCN(C)CC4)c3)nc2N1C1CCN(C(=O)OC(C)(C)C)CC1 [Example 57, tert-butyl 4-[(3R)-1,3-dimethyl-6-({3-[(1-methylpiperidin-4-yl)sulphamoyl]phenyl}-amino)-2-oxo-2,3-dihydro-pyrido[2,3-b]pyrazin-4(1H)-yl]piperidine-1-carboxylate]	151	175
152	165	58	COc1ccc(S(=O)(=O)N2CC3(COC3)C2)cc1Nc1ccc2c(n1)N(C1CCOCC1)[C@H](C)C(=O)N2C [Example 30, (3R)-6-{[2-Methoxy-5-(2-oxa-6-azaspiro[3.3]hept-6-ylsulphonyl)phenyl]amino}-1,3-dimethyl-4-(tetrahydro-2H-pyran-4-yl)-3,4-dihydropyrido[2,3-b]pyrazin-2(1H)-one]	96	80
157	491	91	C[C@@H]1C(=O)N(C)c2ccc(Nc3cccc(C(=O)NCCN4CCN(C)CC4)c3)nc2N1Cc1ccccc1 [Example 74, 3-{[(3R)-4-benzyl-1,3-dimethyl-2-oxo-1,2,3,4-tetrahydropyrido[2,3-b]pyrazin-6-yl]amino}-N-[2-(4-methylpiperazin-1-yl)ethyl]benzamide]	82	83
233	164	62	C[C@@H]1C(=O)N(C)c2ccc(N(C)c3cccc(S(=O)(=O)N(C)C)c3)nc2N1C1CCOCC1 [Example 54, 3-{[(3R)-1,3-dimethyl-2-oxo-4-(tetrahydro-2H-pyran-4-yl)-1,2,3,4-tetrahydropyrido[2,3-b]pyrazin-6-yl](methyl)-amino}-N,N-dimethyl-benzenesulphonamide]	247	156
679	1140	174	COc1ccc(C(=O)NC2CCN(C)CC2)cc1Nc1ccc2c(n1)N(C1CCOCC1)[C@H](C)C(=O)N2C [Example 16, 3-{[(3R)-1,3-Dimethyl-2-oxo-4-(tetrahydro-2H-pyran-4-yl)-1,2,3,4-tetrahydropyrido[2,3-b]pyrazin-6-yl]amino}-4-methoxy-N-(1-methylpiperidin-4-yl)benzamide]	306	346
253	944	88	C[C@@H]1C(=O)N(C)c2ccc(Nc3cccc(S(=O)(=O)NCC4CCN(C)CC4)c3)nc2N1C1CCOCC1 [Example 44, 3-{[(3R)-1,3-dimethyl-2-oxo-4-(tetrahydro-2H-pyran-4-yl)-1,2,3,4-tetrahydropyrido[2,3-b]pyrazin-6-yl]amino}-N-[(1-methylpiperidin-4-yl)methyl]benzene-sulphonamide]	335	362
